Consider two molecules from patent US8975228B2, “Use of boswellic acids for the prophylaxis and/or treatment of damage to and/or inflammation of the islets of Langerhans” (Fraunhofer-Gesellschaft zur Forderung der Angewandten …, priority 2010, dated 2015).

The subject of one assay is islets of Langerhans. In words: Histology of pancreas in MLD-STZ diabetic mice (H&E, anti-CD3, anti-activated caspase 3). The following applies: STZ 40 mg/kg i.p. 5 days; 10 days i.p. BE 150 mg/kg, AKBA 15 mg/kg or KBA 7.5 mg/kg; examined day 10. It is filed as in vivo, mouse. The source says: (§1) The use of “multiple low dose streptozotocin” (MOL-STZ diabetes) is an acknowledged animal model for inducing diabetes that occurs frequently in association with insulitis, which corresponds to IDDM in humans. In the pathogenesis, macrophages and T-lymphocytes infiltrate the islets of Langerhans and the B-cells are destroyed. MLD-STZ induced diabetes is very well suited for investigating the anti-diabetic and/or anti-inflammatory effect of drugs on the pancreatic islets. For inducing MLD-STZ diabetes, a mouse is dosed with 40 mg/kg STZ per day intraperitoneally (i.p.) over 5 days. During this time there is no B-cell destruction. Only after 10 to 15 days after the first injection of STZ do signs of inflammation of the islets of Langerhans appear, when T-lymphocytes infiltrate and the B-cells are being destroyed. After about 16 days, the symptoms of the inflammation have disappeared again. Most B-cells have died. As a consequence, insulin secretion is reduced or no longer existent (cf. McEvoy et al. 1984, “Multiple low-dose streptozotocin-induced diabetes in the mouse”, Evidence for stimulation of a cytotoxic cellular immune response against an insulin-producing beta cell line, J Clin Invest, 74:715-22). This animal model of experimental induction of diabetes mellitus essentially corresponds with the pathogenesis of type 1 diabetes in young humans.
In order to investigate the effect of an extract containing boswellic acids on the damage and/or inflammation of the islets of Langerhans, a group of mice was dosed with streptozotocin alone and another group of mice was dosed with streptozotocin plus boswellic acid extract (a mixture of boswellic acids with an overall concentration of all boswellic acids of 62%) The aforesaid extract contained 5.51% KBA and 4.96% AKBA. From the 1st to the 10th day, C3M/HeN and Bk +/+ were administered i.p with a dose of 150 mg/kg body weight in male mice of strains bred in the laboratory. […]

The nature of assay [1]: Blood glucose level in MLD-STZ diabetic mice. The assay is classed as in vivo, mouse. The following applies: for STZ-induced increase of the blood glucose level: single substance i.p. daily 10 days, AKBA 15 mg/kg, KBA 7.5 mg/kg.
Source text: as §1
For inducing MLD-STZ diabetes, the animals were injected i.p. 40 mg/kg STZ a day for a period of five days. In group A the animals were additionally treated with 150 mg/kg BE i.p. for 5 days (FIG. 5A), in group B for 10 days (FIG. 5B) and in group C for 21 days (FIG. 5C).
The animals were treated for 5 days with STZ as described above. AKBA in solution in Tween 80 was injected i.p. daily for 10 days.

Assay [2] has as its system IFN-γ. The assay is described as follows: Serum pro-inflammatory cytokines in MLD-STZ diabetic mice. It is filed as in vivo, mouse. As to conditions: 10 days i.p.; BE 150 mg/kg, AKBA 15.0 mg/kg, KBA 7.5 mg/kg. On the procedure: (§2) Male mice were injected i.p. 40 mg/kg STZ for 5 days (STZ group, group A). A second group was, in addition to STZ, treated i.p. with 150 mg/kg BE for 10 days (group STZ+BE, group B). A further group (group C) remained untreated. After 10 days blood samples were taken.
(§3) In further tests, 15.0 mg/kg AKBA or 7.5 mg/kg KBA respectively were administered instead of 150 mg/kg BE.
(§4) Ten days after daily i.p. injections of 150 mg/kg of boswellia extract, of 15.0 mg/kg AKBA or 7.5 mg/kg KBA in MLD-STZ animals (40 mg/kg i.p. for 5 days) the presence of cytokines was determined using the commercially available Multianalyte Array TM Kits (mouse-inflammatory cytokines, SA Bioscience Corporation, USA) according to the instructions on usage provided by the manufacturer. The cytokines IL-1A, IL-1B, IL-2, IFN-γ, IL-6 and TNF-α were ascertained.

In the next assay the test system is IL-1A. Described as above. The assay is classed as in vivo, mouse. As to conditions: 10 days i.p.; BE 150 mg/kg, AKBA 15.0 mg/kg, KBA 7.5 mg/kg. How it is done:
as §2, §3, §4

The next assay deals with IL-1B. Described as above. The assay is classed as in vivo, mouse. As to conditions: 10 days i.p.; BE 150 mg/kg, AKBA 15.0 mg/kg, KBA 7.5 mg/kg. How it is done: as §2, §3, §4
In assay [3] the test system is IL-2. The assay is described as above. It is filed as in vivo, mouse. As to conditions: 10 days i.p.; BE 150 mg/kg, AKBA 15.0 mg/kg, KBA 7.5 mg/kg. How it is done: as §2, §3, §4
A further assay deals with IL-6. The assay is described as above. It is filed as in vivo, mouse. The following applies: 10 days i.p.; BE 150 mg/kg, AKBA 15.0 mg/kg, KBA 7.5 mg/kg. How it is done: as §2, §3, §4
Assay [4] has as its system TNF-α. The description is as above. It is filed as in vivo, mouse. As to conditions: 10 days i.p.; BE 150 mg/kg, AKBA 15.0 mg/kg, KBA 7.5 mg/kg. On the procedure: as §2, §3, §4
The target of assay [5] is T1, 5-Lipoxygenase (leukotriene) (Homo sapiens, UniProt P09917).
T1 sequence (P09917 1-674): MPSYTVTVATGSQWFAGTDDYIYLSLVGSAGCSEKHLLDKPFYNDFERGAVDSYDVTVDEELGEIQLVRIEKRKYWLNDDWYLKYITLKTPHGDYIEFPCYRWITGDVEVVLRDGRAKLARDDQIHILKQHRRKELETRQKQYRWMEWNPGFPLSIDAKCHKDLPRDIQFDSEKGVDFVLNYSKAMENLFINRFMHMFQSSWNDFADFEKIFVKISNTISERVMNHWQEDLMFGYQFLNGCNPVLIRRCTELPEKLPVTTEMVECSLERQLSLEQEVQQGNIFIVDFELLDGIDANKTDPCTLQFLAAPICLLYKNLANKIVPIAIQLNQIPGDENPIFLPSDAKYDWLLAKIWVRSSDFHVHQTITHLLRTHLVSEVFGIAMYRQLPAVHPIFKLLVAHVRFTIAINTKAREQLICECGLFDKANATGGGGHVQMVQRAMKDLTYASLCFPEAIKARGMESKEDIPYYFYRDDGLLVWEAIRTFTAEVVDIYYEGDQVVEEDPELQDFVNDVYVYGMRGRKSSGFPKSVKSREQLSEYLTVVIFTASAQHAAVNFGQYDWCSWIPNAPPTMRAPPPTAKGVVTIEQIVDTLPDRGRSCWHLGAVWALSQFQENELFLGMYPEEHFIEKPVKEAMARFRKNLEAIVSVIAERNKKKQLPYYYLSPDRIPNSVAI
As to conditions: in vitro, technical literature; cited from earlier work.

The target in assay [6] is Cyclooxygenase 1 (prostaglandin) (Homo sapiens, UniProt P23219). As to conditions: in vitro, technical literature; cited from earlier work.
For the next assay, the system named is IL-1β. As to conditions: in vitro, technical literature; cited from earlier work.
The subject of assay [7] is IL-2. The following applies: in vitro, technical literature; cited from earlier work.
Assay [8] has as its system IFN-γ. The following applies: in vitro, technical literature; cited from earlier work.
In assay [9] the test system is TNF-α. The following applies: in vitro, technical literature; cited from earlier work.
A further assay deals with NFK B. As to conditions: in vitro, technical literature; cited from earlier work.
A further assay deals with C3-Convertase. The following applies: in vitro, technical literature; cited from earlier work.
For the next assay, the target named is T2, Elastase (Homo sapiens, UniProt P08246).
T2 sequence (P08246 30-267): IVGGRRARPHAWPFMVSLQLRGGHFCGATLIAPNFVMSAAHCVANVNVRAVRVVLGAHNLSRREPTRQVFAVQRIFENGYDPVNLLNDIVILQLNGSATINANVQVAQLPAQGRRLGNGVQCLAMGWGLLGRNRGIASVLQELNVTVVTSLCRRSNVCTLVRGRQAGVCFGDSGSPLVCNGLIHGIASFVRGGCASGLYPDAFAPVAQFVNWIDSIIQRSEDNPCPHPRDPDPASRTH
The following applies: in vitro, technical literature; cited from earlier work.

Cyclooxygenase 1 (prostaglandin), sequence (P23219 24-599): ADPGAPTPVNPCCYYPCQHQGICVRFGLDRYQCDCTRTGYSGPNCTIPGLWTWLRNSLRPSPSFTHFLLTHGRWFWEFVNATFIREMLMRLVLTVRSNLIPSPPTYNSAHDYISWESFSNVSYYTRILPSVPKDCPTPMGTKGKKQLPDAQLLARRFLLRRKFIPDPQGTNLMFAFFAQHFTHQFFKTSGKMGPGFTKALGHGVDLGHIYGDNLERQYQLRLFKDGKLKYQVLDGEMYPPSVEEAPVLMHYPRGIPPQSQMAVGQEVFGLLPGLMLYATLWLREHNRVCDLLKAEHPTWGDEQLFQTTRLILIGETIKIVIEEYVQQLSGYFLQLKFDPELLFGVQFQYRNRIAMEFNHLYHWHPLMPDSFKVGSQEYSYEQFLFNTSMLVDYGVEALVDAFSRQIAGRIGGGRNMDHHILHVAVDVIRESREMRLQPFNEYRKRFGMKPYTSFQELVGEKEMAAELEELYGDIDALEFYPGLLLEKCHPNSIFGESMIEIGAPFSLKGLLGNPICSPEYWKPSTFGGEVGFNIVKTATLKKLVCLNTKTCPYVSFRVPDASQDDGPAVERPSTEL

`CC(=O)O[C@@H]1CC[C@@]2(C)[C@@H](CC[C@]3(C)[C@@H]2C(=O)C=C2[C@@H]4[C@@H](C)[C@H](C)CC[C@]4(C)CC[C@]23C)[C@@]1(C)C(=O)O` [AKBA, acetyl-11-keto-β-boswellic acid]: in the assay on islets of Langerhans, the “Signs of apoptosis (activated caspase 3)” value was “only minor signs of apoptosis” and the “Signs of inflammation of the islets of Langerhans (H&E staining, T-lymphocytes by CD3)” value is reported as “no signs of inflammation”. Also, the “Blood glucose level after administration was discontinued after 10 days” value in [1] (AKBA 15 mg/kg i.p. 10 days) is recorded as “no significant further increase”. Further, in assay [1], the “STZ-induced increase of the blood glucose level” value is given as “significant reduction”. Moreover, the “STZ-induced increase in serum IFN-γ” value with IFN-γ [2] is “reduced or prevented”. Also, in the assay with IL-1A, the “STZ-induced increase in serum IL-1A” value was “reduced or prevented”. Besides, in the assay with IL-1B, the “STZ-induced increase in serum IL-1B” value was “reduced or prevented”. Besides, the “STZ-induced increase in serum IL-2” value in the assay with IL-2 [3] is listed as “reduced or prevented”. In the assay on IL-6, the “STZ-induced increase in serum IL-6” value is listed as “reduced or prevented”. Moreover, in the assay with TNF-α [4], the “STZ-induced increase in serum TNF-α” value is recorded as “reduced or prevented”. In addition, the “Effect on 5-Lipoxygenase (leukotriene)” value in [5] is recorded as “Lowered”. For the same molecule, the “Effect on Cyclooxygenase 1 (prostaglandin)” value in assay [6] is listed as “Lowered”. In the assay on IL-1β, the “Effect on IL-1β” value was “Lowered”. Moreover, the “Effect on IL-2” value in the assay on IL-2 [7] was “Lowered”. Further, in the assay on IFN-γ [8], the “Effect on IFN-γ” value is listed as “Lowered”. In addition, in the assay with TNF-α [9], the “Effect on TNF-α” value was “Lowered”. For the same molecule, the “Effect on NFK B” value with NFK B is recorded as “Lowered”. In addition, the “Effect on C3-Convertase” value with C3-Convertase is recorded as “Lowered”. Also, at Elastase, the “Effect on Elastase” value is reported as “Lowered”.
`C[C@H]1[C@H](C)CC[C@]2(C)CC[C@]3(C)C(=CC(=O)[C@@H]4[C@@]5(C)CC[C@@H](O)[C@](C)(C(=O)O)[C@@H]5CC[C@]43C)[C@H]12` [KBA, 11-keto-β-boswellic acid]: the “Signs of inflammation of the islets of Langerhans (H&E staining, T-lymphocytes by CD3)” value in the assay on islets of Langerhans is listed as “neither signs of inflammation”. Further, in [1], the “STZ-induced increase of the blood glucose level” value is “reduced”. Further, the “STZ-induced increase in serum IFN-γ” value in the assay on IFN-γ [2] is “reduced or prevented”. Also, in the assay with IL-1A, the “STZ-induced increase in serum IL-1A” value is “reduced or prevented”. Moreover, the “STZ-induced increase in serum IL-1B” value with IL-1B was “reduced or prevented”. In addition, the “STZ-induced increase in serum IL-2” value with IL-2 [3] is recorded as “reduced or prevented”. The “STZ-induced increase in serum IL-6” value in the assay on IL-6 is “reduced or prevented”. The “STZ-induced increase in serum TNF-α” value in the assay with TNF-α [4] is “reduced or prevented”.
